Assay results published in paper PMC5701947, “β1-Adrenergic Receptor Contains Multiple IA^k and IE^k Binding Epitopes That Induce T Cell Responses with Varying Degrees of Autoimmune Myocarditis in A/J Mice” (Frontiers in Immunology, 2017).
No end group written: not given here.

Columns and labels:
[1] = system: T cells (lymph node cells/splenocytes from immunized animals); assay: T cell proliferation assay ([3H]-thymidine); format: cell-based, A/J mice; conditions: for T cell responses (in words): proliferation, 0–100 µg/ml, 2 days + 16 h [3H]-thymidine, cpm; for T cell responses: fold vs medium control
Description: At termination, lymph nodes (maxillary, mandibular, axillary, inguinal, and popliteal) and spleens were harvested from immunized animals to prepare single cell suspensions. Similarly, splenocytes were prepared from naive animals. After lysing the erythrocytes and washing, cell pellets were suspended in RPMI medium containing 10% fetal bovine serum, 1 mM sodium pyruvate, 4 mM L-glutamine, 1 × each of non-essential amino acids and vitamin mixture, and 100 U/ml penicillin–streptomycin (Lonza, Walkersville, MD, USA; hereafter called growth medium). In some experiments, CD4 T cells and CD8 T cells were enriched to a purity of ~95% by negative selection based on magnetic separation using IMAG (BD Biosciences, San Jose, CA, USA) ([31]). To stimulate CD4 and CD8 T cells, syngeneic naive irradiated splenocytes loaded with peptides were used as antigen-presenting cells at a ratio of 1:1. Cells were stimulated at a density of ~5 × 10^6 cells/ml in triplicates with or without the immunizing peptides (0–100 µg/ml) in growth medium. RNase 43–56 or HEL 46–61 were used as irrelevant controls. After 2 days, cells were pulsed with tritiated ^3[H]-thymidine (1 μCi/well; MP Biomedicals, Santa Ana, CA, USA), and 16 h later, proliferative responses were measured as counts per minute (cpm) using a Wallac liquid scintillation counter (Perkin Elmer, Waltham, MA, USA) ([26], [28], [30]).

A/J mice (hearts) = assay: Induction of myocarditis by active immunization with peptides (histology); format: in vivo
IA^k = target: T1, IA^k (Mus musculus, UniProt P01910+P06343); assay: MHC class II-binding assay, IA^k; set-up: species or system A/J mice; conditions: soluble IA^k monomers, reference HEL 46–61; Figure S1B
T1 construct: soluble IA^k and IE^k monomers were expressed; class II-associated invariant-chain peptide (CLIP) 88–102 (VSQMRMATPLLMRPM) with thrombin cleavage site (cleaved yes); made in house; host or cells: baculovirus expression (sf9 cells are named only for the IA^k dextramer constructs)
Description: A/J mice express two MHC class II alleles, IA^k and IE^k ([33], [34]), and to determine the affinities of β1AR peptides, soluble IA^k and IE^k monomers were expressed ([34], [35]). In brief, the β-chain in each of IA^k and IE^k constructs contain sequence for class II-associated invariant-chain peptide 88–102 (VSQMRMATPLLMRPM) linked with thrombin cleavage site ([34], [35]). After expressing in the baculovirus, soluble IA^k and IE^k monomers were treated with thrombin (20 U/mg; Novagen, Madison, WI, USA) to release class II-associated invariant-chain peptide leading us to obtain empty IA^k and IE^k molecules. Reaction mixtures were prepared to include empty IA^k or IE^k monomers (0.35 µg), competitor peptides (β1ARAc 171–190, β1ARAc 181–200, β1ARAc 201–220, and β1ARAc 211–230) (0.00001–100 µM), and constant amounts of the biotinylated reference peptides HEL 46–61 (for IA^k) or MCC 82–103 (for IE^k) (1 µM) in a buffer containing 50 mM sodium phosphate pH 7.0, 100 mM sodium chloride, 1 mM EDTA, and 1 × protease inhibitor (Sigma-Aldrich, St. Louis, MO, USA) ([36]–[38]). After incubating overnight at RT, the mixtures were transferred to 96-well white fluorescence plates coated with anti-IA^k (clone 10-2.16, BioXcell, West Lebanon, NH, USA), and anti-IE^k (clone M5/114, BioXcell) Abs (10 µg/ml) in 0.2 M sodium phosphate buffer, pH 6.8, blocked with 2% bovine casein; and the plates were incubated on a rocker at RT for 1 h. Finally, after adding 100 µl of europium-labeled streptavidin (0.1 µg/ml) and dissociation-enhanced lanthanide fluoroimmunoassay (DELFIA) enhancement solution (Perkin Elmer) sequentially, fluorescence intensities were measured at excitation/emission wavelengths of 340/615 nm using a Victor Multilabel Plate Reader (Perkin Elmer). The IC50 values were determined based on the concentrations of competitor peptides needed to prevent 50% binding of the reference peptides as we have described previously ([26], [28], [30]).

[2] = system: serum antibodies (Igs and isotypes) of immunized mice; assay: ELISA, antibodies that react with β1ARAc peptides; format: in vivo, A/J mice; conditions: serum 1:100, day 21, OD 405 nm; for Antibody response, total Igs (in words): five animals per group
Description: ELISA was used to measure antibodies that react with β1ARAc peptides in the serum samples collected from immunized animals at termination on day 21 as described previously ([26]). […] After washing/blocking, serum samples (1:100) were added in duplicates, and the plates were incubated at 37°C for 1 h followed by addition of HRP-labeled goat anti-mouse immunoglobulins (Igs), IgG1, IgG2a, IgG2b, IgG3, IgM, IgA, and IgE (Southern Biotech, Birmingham, AL, USA) as secondary antibodies. Two hours after incubation at RT, 1 × tetramethylbenzidine solution was added as a substrate (eBioscience), and reactions were stopped using 1 M phosphoric acid. The plates were read at 405 nm using an automated ELISA reader (BioTek instruments, Winooski, VT, USA) to measure OD values ([26], [46]).

CD4 and CD8 T cells = conditions: cited from earlier work
Text: Expectedly, sections from control groups were negative for all the markers tested except rare CD11b^+ cells.

CD4 T cells = assay: IA^k dextramer staining of CD4 T cells; format: cell-based, A/J mice; conditions: IA^k dextramers
Text: To enumerate the frequencies of antigen-specific CD4 T cells, we created IA^k dextramers for β1AR 171-190 and β1AR 211–230, and IE^k dextramers for β1AR 181–200. To create IA^k dextramers, the nucleotide sequence for β1AR 171–190 ([…]) and β1AR 211–230 ([…]) was inserted into the IA^k-β construct that we had described previously ([35], [39]), whereas IA^k/RNase 43–56 (control) dextramers were readily available in our laboratory ([30], [35], [40]). The soluble, IA^k/β1AR 171–190 and IA^k/β1AR 211–230 molecules were expressed in sf9 cells using baculovirus expression system. After purifying through anti-IA^k-affinity column, the IA^k/β1AR 171–190 and IA^k/β1AR 211–230 monomers were biotinylated and dextramers were derived using streptavidin (SA)/fluorophore-conjugated dextran molecules as described previously ([35], [39]). […]
To stain with dextramers, lymphocytes obtained from lymph nodes and spleens from immunized animals were stimulated with the immunizing peptides namely, β1ARAc 171–190, β1ARAc 181–200, and β1ARAc 211–230 (20 µg/ml) for 2 days and growth medium containing interleukin (IL)-2 (IL-2 medium) was then added. […] After washing, and acquisition by flow cytometry, percent dextramer^+ (dext^+) cells were analyzed within the live cells (7-AAD^−) using Flow Jo software ([34], [35], [39]).

[3] = acetylated peptides in CFA/PT (100 µg individually, 50 µg each when pooled), days 0 and 7, day 21

T1 sequence (P01910 24-218 limits assumed): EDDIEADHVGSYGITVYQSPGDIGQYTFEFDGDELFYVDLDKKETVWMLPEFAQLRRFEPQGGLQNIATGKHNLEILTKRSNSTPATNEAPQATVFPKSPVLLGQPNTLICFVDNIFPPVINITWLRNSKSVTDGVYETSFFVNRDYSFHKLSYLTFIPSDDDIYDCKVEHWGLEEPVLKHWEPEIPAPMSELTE
T1 sequence (P06343 28-224 limits assumed): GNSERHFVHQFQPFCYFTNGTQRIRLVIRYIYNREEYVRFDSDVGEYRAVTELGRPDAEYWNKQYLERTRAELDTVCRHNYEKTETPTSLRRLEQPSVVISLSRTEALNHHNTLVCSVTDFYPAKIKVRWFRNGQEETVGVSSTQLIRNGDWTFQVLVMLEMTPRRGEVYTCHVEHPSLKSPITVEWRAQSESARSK

β1ARAc 201–220: N-terminal acetylated mouse β1-adrenergic receptor peptide 201–220 (Ac-AESDEARRCYNDPKCCDFVT; cysteine pairing not given here; UniProt P34971 201-220, looked up, fragment)
T cell responses (in words) [1]: non-T cell activators
Myocarditis induction (in words) (A/J mice (hearts); acetylated peptide, standard CFA/PT protocol): failed to induce myocarditis
IA^k binding (in words) (IA^k): failed to bind IA^k molecule
Antibody isotypes produced, IgG and IgM (in words) [2]: all IgG isotypes (IgG1, IgG2a, IgG2b, IgG3) including IgM
Antibody response, total Igs (in words) [2]: antibody response

β1ARAc 191–210: N-terminal acetylated mouse β1-adrenergic receptor peptide 191–210 (Ac-FLPILMHWWRAESDEARRCY; UniProt P34971 191-210, looked up, fragment)
T cell responses (in words) [1]: non-T cell activators
Myocarditis incidence (A/J mice (hearts); [3]): 0%
Myocarditis incidence (animals with disease/total) (A/J mice (hearts); [3]): 0/5
Inflammatory foci (A/J mice (hearts); acetylated peptides in CFA/PT, mean ± SEM of myocarditic animals, day 21): 0
Antibody response, total Igs (in words) [2]: to some degree

Myhc 334–352: cardiac myosin heavy chain-α 334–352 (DSAFDVLSFTAEEKAGVYK; UniProt Q02566 334-352, looked up, fragment)
Common epitope for CD4 and CD8 T cells (in words) (CD4 and CD8 T cells): common epitopes for both CD4 and CD8 T cells

myelin oligodendrocyte glycoprotein 35–55: CD4 and CD8 common epitope (MEVGWYRSPFSRVVHLYRNGK; UniProt Q61885 63-83, looked up, fragment)
Common epitope for CD4 and CD8 T cells (in words) (CD4 and CD8 T cells): common epitopes for both CD4 and CD8 T cells

VNTFVHESLADVQA [RNase 43–56, bovine ribonuclease 43–56, irrelevant control, reference compound]
T cell responses ([1]; 10 μg/ml, animals immunized with pool I): 1.05 fold
T cell responses ([1]; 10 μg/ml, animals immunized with pool II): 1.06 fold
T cell responses ([1]; 10 μg/ml, animals immunized with pool III): 1.04 fold
T cell responses ([1]; 10 μg/ml, animals immunized with pool IV): 1.06 fold
T cell responses ([1]; 10 μg/ml, animals immunized with pool IX): 0.80 fold
T cell responses ([1]; 10 μg/ml, animals immunized with pool V): 1.06 fold
T cell responses ([1]; 10 μg/ml, animals immunized with pool VI): 0.73 fold
T cell responses ([1]; 10 μg/ml, animals immunized with pool VII): 1.16 fold
T cell responses ([1]; 10 μg/ml, animals immunized with pool VIII): 0.91 fold
T cell responses ([1]; 100 μg/ml, animals immunized with pool I): 1.42 fold
T cell responses ([1]; 100 μg/ml, animals immunized with pool II): 1.20 fold
T cell responses ([1]; 100 μg/ml, animals immunized with pool III): 1.14 fold
T cell responses ([1]; 100 μg/ml, animals immunized with pool IV): 1.15 fold
T cell responses ([1]; 100 μg/ml, animals immunized with pool IX): 0.83 fold
T cell responses ([1]; 100 μg/ml, animals immunized with pool V): 1.14 fold
T cell responses ([1]; 100 μg/ml, animals immunized with pool VI): 1.10 fold
T cell responses ([1]; 100 μg/ml, animals immunized with pool VII): 1.16 fold
T cell responses ([1]; 100 μg/ml, animals immunized with pool VIII): 0.81 fold
T cell responses (in words) [1]: lacking
percent dext^+ CD4^high T cells (CD4 T cells; cells from β1ARAc 171–190-immunized mice, P = 0.049 vs control dextramer, Figure 4A): 0.52 ± 0.08%
percent dext^+ CD4^high T cells (CD4 T cells; cells from β1ARAc 211–230-immunized mice, P = 0.0003 vs control dextramer, Figure 4C): 0.12 ± 0.01%
Antibody response, total Igs (in words) [2]: lacking

interphotoreceptor retinoid-binding protein 1–20: CD4 and CD8 common epitope (GPTHLFQPSLVLDMAKVLLD; UniProt P10745 18-37, looked up, fragment)
Common epitope for CD4 and CD8 T cells (in words) (CD4 and CD8 T cells): common epitopes for both CD4 and CD8 T cells
